Laboratory results published in patent publication US20120196858A1, “METHOD OF PROMOTING APOPTOSIS AND INHIBITING METASTASIS” (Poniard Pharmaceuticals ,Inc., priority 2009, published 2012).

Tests used:
[1] = tested on: p130Cas tyrosine phosphorylation (pY249, pY410); assay: Phospho-specific immunoblotting of p130Cas in 4T1 cells; assay type: cell-based, murine
From the text: (§1) Immunoblotting: Protein extracts of cells were made using lysis buffer containing 1% Triton X-100, 1% sodium deoxycholate, and 0.1% SDS and were separated by 4-12% SDS-PAGE (sodium dodecyl sulfate polyacrylamide gel electrophoresis) and sequential immunoblotting performed as described in Mitra S K, Lim S T, Chi A, Schlaepfer D D. Intrinsic focal adhesion kinase activity controls orthotopic breast carcinoma metastasis via the regulation of urokinase plasminogen activator expression in a syngeneic tumor model. Oncogene 2006; 25:4429-40. Relative expression levels and phospho-specific antibody reactivity were measured by densitometry analyses of blots using Image J (version 1.42q). Inhibition of FAK and p130Cas tyrosine phosphorylation was quantified by calculating the ratio of pY397 FAK protein to total FAK. Similar analyses were performed for p130Cas using pY410 p130Cas and total p130Cas blot data.

[2] = tested on: caspase 3 cleavage in 4T1 cells; assay: Cleaved caspase 3 immunoblotting of cell lysates; assay type: cell-based, murine; conditions: 24 h
From the text: as §1, with “Similar analyses were performed for p130Cas using pY410 p130Cas and total p130Cas blot data.” left out
Cell pellets were resuspended in 300 p. […] Samples were analyzed by flow cytometry (FACSCalibur, Becton-Dickinson) and cell cycle analyses were performed by ModFit LT3.2 software (Verity software house). Hypodiploid DNA content as a measure of cell apoptosis was detected by PI staining as described ^29. […] Apoptosis was calculated to be the percent of annexin V-positive cells. In the soft agar assays, apoptosis was quantified by visual inspection of at least 200 cells and was defined as the appearance of membrane blebbing or cell shrinkage. […]

4T1 cells [3] = assay: Time lapse scratch-wound closure motility assay; assay type: cell-based
Description: Cell migration assays: Serum-stimulated chemotaxis using Millicell (12 mm diameter with 8 μm pores; Millipore) chambers were performed as described previously^49. Both sides of membrane were coated with fibronectin (10 μg/ml) and chemotaxis was stimulated by addition of 10% FBS to the lower chamber. Data points represent cell counts (9 fields) from three migration chambers from at least two independent experiments. For scratch-wound closure motility assays, cells were seeded onto fibronectin-coated (10 μg/ml) glass bottom 12 well plates (MatTek) and serum starved (0.5% FBS) for 16 h. Cells were wounded with a pipette tip, washed with phosphate-buffered salin (PBS), and replenished with 10% FBS media with or without FAK inhibitor (1 μM). Time-lapse series was obtained by acquiring images at 10 min intervals for up to 22 h, at 37° C. with humidity and CO2 regulation using a 10× objective on an automated stage (Olympus IX81). Cell trajectories and distance traveled were measured by tracking nucleus position over time using Image J.

4T1 cells [4] = assay: Cell cycle analysis by propidium iodide staining and flow cytometry; assay type: cell-based, murine; conditions: 1.0 μM
Description: Cell pellets were resuspended in 300 p. 1 of PBS containing propidium iodide (PI) (10 μg/ml), DNAse-free RNAse (100 μg/ml, Qiagen), and then incubated at 37° C. with agitation for 1 h. Samples were analyzed by flow cytometry (FACSCalibur, Becton-Dickinson) and cell cycle analyses were performed by ModFit LT3.2 software (Verity software house). Hypodiploid DNA content as a measure of cell apoptosis was detected by PI staining as described ^29. […] Quadrant gates were positioned based on cell autofluorescence (negative) staurosporine-treated (positive) controls. Apoptosis was calculated to be the percent of annexin V-positive cells. In the soft agar assays, apoptosis was quantified by visual inspection of at least 200 cells and was defined as the appearance of membrane blebbing or cell shrinkage. Apoptosis was also detected by appearance of cleaved caspase-3 antibody reactivity in protein lysates by immunoblotting.

c-Src (pY416 Src) = target: T1, c-Src (pY416 Src) (Mus musculus, UniProt P05480); assay: Phospho-specific immunoblotting of Src pY416 in 4T1 cells; assay type: cell-based, murine
T1 construct: endogenous in cells; host or cells: 4T1 murine mammary carcinoma cells

4T1 tumors = assay: Subcutaneous mCherry 4T1 tumor growth in BALB/c mice; assay type: in vivo
Description: Detection of apoptosis in tumors: Fresh tumors were snap-frozen in Optimal Cutting Temperature (OCT) compound (Tissue Tek), thin sectioned ([…]) using a cryomicrotome (Leica 3050S) and mounted onto glass slides. Sections were fixed with 3% paraformaldehyde, permeabilized in PBS containing 0.1% Triton for 3 min, and blocked with 8% goat serum in PBS for 60 min at RT. For activated caspase-3 detection, sections were incubated with cleaved caspase-3 antibody (1:200 diluted in 2% goat serum in PBS) for 18 h at 4° C., washed with PBS, and incubated with fluorescein isothiocyanate conjugated anti-rabbit and TOPRO-3 (blue) for DNA detection. Sections were imaged on a Nikon Eclipse C1 confocal microscope with a 1.4 NA 60× oil objective, with a 30 μm pinhole setting, and analyzed using EZ-C1 3.50 software (Nikon). Tumor apoptosis was also measured by terminal deoxynucleotidyl transferase dUTP nick end labeling (TUNEL) staining using the tetramethylrhodamine (TMR) kit as per the manufacturer's instructions (Roche). Bright field and fluorescent images of whole tumor sections were obtained using Zeiss M2-Bio Stereo microscope equipped with INFINITY1-3C: digital color camera and a 4× objective.
Mouse tumor studies: Six to eight week old female C57B16 and BALB/c mice were obtained from Harlan Laboratories (Indianapolis, Ind.) and housed in pathogen-free conditions, according to the guidelines of the Association for the Assessment and Accreditation for Laboratory Animal Care, International. All in vivo studies were carried out under an approved institutional experimental animal care and use protocol. Growing tumor cells were harvested by limited trypsinization, washed in PBS, and counted using a ViCell XR (Beckman) prior to injection. Cell viability as measured by trypan blue exclusion was >95%. For subcutaneous tumor growth, 1×10^6 mCherry-labeled 4T1 cells in 100 μl PBS were injected into the hindflank of Balb/C mice. […] Control animals received PEG400:PBS injections and at 13 days, tumors were imaged in situ using an Olympus OV100 Intravital Fluorescence Molecular Imaging System, tumors were excised and weighed, half was frozen in OCT, and half was solubilized in protein lysis buffer for FAK phosphorylation analyses. For ID8 ovarian carcinoma tumor growth, 0.8 mL of 1×10^7 ID8 cells in PBS was intraperitoneal injected into C57B16 mice. […] Administration continued ad libitum for 30 days after which mice were euthanized, ascites fluid collected, cells obtained by centrifugation (2000 rpm for 5 min), cell volume measured by pipet, and then solubilized in protein lysis buffer for immunoblotting analyses.

MDA-MB-231 tumors = assay: Orthotopic MDA-MB-231 breast carcinoma model; assay type: in vivo, NOD/SCID mice; conditions: 0.5 mg/ml ad libitum
Description: Orthotopic breast cancer models: One million 4T1 or MDA-MB-231 cells in 10 μl PBS were injected into the T4 mammary fat pad of 8-10 week old mice using a Hamilton syringe. […] Tumors were measured every 3-4 days with digital vernier calipers and tumor volume (mm^3) was calculated using the formula: V=axb^2/2 (a=length, mm; b=width, m) Body weight was measured weekly to assess toxicity. Lungs, spleen, and primary tumors were surgically removed and weighed. Tumors sections were homogenized in protein lysis buffer for immunoblotting or placed in Optimal Cutting Temperature (OCT) compound (Tissue Tek), frozen in liquid nitrogen, thin sectioned (7 μM) using a cryostat (Leica 3050S), and mounted onto glass slides.
Metastatic tumor burden (number of metastatic lesion or mean pixel volume) was determined and groups (Negligible, Moderate, and High) were separated based upon numbers distribution. After imaging, lungs were fixed in Bouin's solution (Sigma), paraffin embedded, sectioned, and stained with hematoxylin and eosin (H&E) for histological evaluation. Images were acquired using a differential interference contrast-equipped Olympus IX81 inverted microscope and an Olympus DP71 digital color camera using Slidebook (v5.0) software. For MDA-MB-231 tumor metastasis studies, lungs were inflated by intratracheal injection of a 1:1 solution of OCT in sterile water using a 25 gauge needle. Lungs were resected, embedded in OCT, and frozen in liquid nitrogen.

[5] = adherent 4T1 cells, 1 h, PND-1186 to 1 μM

In the case of `CNC(=O)c1ccccc1Nc1cc(Nc2ccc(N3CCOCC3)cc2OC)ncc1C(F)(F)F` [PND-1186], the “p130Cas pY249 phosphorylation in 4T1 spheroids” value ([1]; 0.1 μM, 3D spheroids) is reported as “potently inhibited”, the “p130Cas pY410 phosphorylation in 4T1 spheroids” value ([1]; 0.1 μM, 3D spheroids) is reported as “potently inhibited” and the “p130Cas pY249 phosphorylation” value [1, 5] is reported as “did not affect”. For the same compound, the “cleaved caspase 3, adherent cells” value [2] was “not detectable”, the “cleaved caspase 3, suspended cells” value [2] was “increased in PND-1186-treated suspended cells (maximal at 0.4 μM)” and the “cell detachment or death” value (4T1 cells [3]; 1 μM over 22 h) was “No evidence of 4T1 cell detachment or death”. The wound closure (4T1 cells [3]; 1 μM, 22 h (DMSO 89%)) was 40%, the “cell cycle distribution, suspended cells” value (4T1 cells [4]) was “did not reveal cell cycle differences” and the “cell cycle distribution, adherent cells” value (4T1 cells [4]; 72 h, vs DMSO) was “slight accumulation in the S and G2/M phases”. The “sub-diploid (1N) cells, suspended cells” value (4T1 cells [4]; PI staining) was “accumulation of sub-diploid (1N) cells”, the “Src pY416 and Src expression levels in spheroids” value (c-Src (pY416 Src); PND-1186-treated 3D spheroids) was “no change” and the “Src pY416 phosphorylation” value (c-Src (pY416 Src); [5]) was “did not affect c-Src activity”. The final tumor weight (4T1 tumors; 30 mg/kg b.i.d., 5 days) was “slightly reduced final tumor weight but was not significantly different”, the “cleaved caspase-3 staining in tumors” value (4T1 tumors; 100 mg/kg) was “elevated cleaved caspase-3 staining” and the “reduction of final tumor weight” value (4T1 tumors; 100 mg/kg b.i.d., 5 days) was 2 fold. For the same compound, the “tumor TUNEL staining” value (4T1 tumors; 30 and 100 mg/kg b.i.d., vs vehicle) was “significantly increased tumor TUNEL staining”, the “FAK pY397 phosphorylation in MDA-MB-231 tumors” value (MDA-MB-231 tumors) was “significantly reduce FAK pY397 phosphorylation” and the “reduction of number of metastatic lung lesions” value (MDA-MB-231 tumors) was > 3.5 fold. The “tumor size by Day 27 (caliper)” value (MDA-MB-231 tumors; 15 days of administration) was “control tumors were significantly larger” and the “decrease in final tumor weight” value (MDA-MB-231 tumors; Day 70) was > 5 fold.
